Test results as given in ChEMBL document CHEMBL5131375, “Recent Developments in the Use of Kinase Inhibitors for Management of Viral Infections” (J Med Chem, 2022).

What was measured:
in vitro [1] = details: human, hek-293t
Enterovirus A71 [2] = test: Antiviral activity against enterovirus A71 infected in human HeLa cells assessed as decrease in viral titer by inhibition of Pim1; type: functional; parameters: scale not given: the % may be the effect or the level left
Enterovirus A71 [3] = test: Antiviral activity against enterovirus A71 infected in human RD cells assessed as decrease in viral mRNA level at 2 uM; type: functional; parameters: scale not given: the % may be the effect or the level left
in vitro [4] = details: human
Enterovirus A71 [5] = test: Antiviral activity against enterovirus A71 assessed as reduction in viral mRNA level at 2 uM relative to control; type: functional; parameters: scale not given: the % may be the effect or the level left
Enterovirus A71 [6] = test: Antiviral activity against enterovirus A71 infected in human HeLa cells assessed as decrease in viral mRNA level at 2 uM; type: functional; parameters: scale not given: the % may be the effect or the level left
Enterovirus A71 [7] = test: Antiviral activity against enterovirus A71 infected in human RD cells assessed as decrease in viral titer by inhibition of Pim1; type: functional; parameters: scale not given: the % may be the effect or the level left
Human alphaherpesvirus 1 [8] = test: Antiviral activity against HSV-1-induced necrosis; type: functional, organism-based
Human alphaherpesvirus 1 [9] = test: Antiviral activity against HSV-1 KOS strain infected in 1 hr pretreated mouse L929 cells assessed as cell viability by cell titre-glo luminescent kit method; type: functional, organism-based; details: Human alphaherpesvirus 1, KOS
[10] = Cytotoxicity against 24ST1NLESG cells (unknown origin); type: toxicity, cell-based
dengue virus type 2 [11] = test: Antiviral activity against DENV2 infected in hamster BHK-21 cells; type: functional
[12] = Cytotoxicity against microglia (unknown origin) cells; type: toxicity, cell-based
dengue virus type 2 [13] = test: microbe, parasite or virus in culture; type: functional, organism-based
[14] = biological target: Cyclin-dependent kinase 9 (Homo sapiens, UniProt P50750); test: Inhibition of CDK9 (unknown origin) incubated for 2 hrs by measuring remaining ATP
Human alphaherpesvirus 1 [15] = test: microbe, parasite or virus in culture; type: functional, organism-based
[16] = Cytotoxicity against human HepG2 cells; type: toxicity, cell-based
Human alphaherpesvirus 1 [17] = test: Antiviral activity against ACV-resistant HSV-1 in African green monkey Vero cells measured after 2 days; type: functional, organism-based; details: Human alphaherpesvirus 1, Vero, 48 h
Human alphaherpesvirus 1 [18] = test: In vivo antiviral activity against HSV-1 infected in organism (unknown origin) assessed as suppression of skin lesions at 10% ointment treatment; type: functional
Hepatitis B virus [19] = test: microbe, parasite or virus in culture; type: functional, organism-based; details: Hepatitis B virus
Hepatitis B virus [20] = test: Antiviral activity against HBV infected in human HepG2-hNTCP cells; type: functional, organism-based
[21] = Cytotoxicity against human MCF7 cells; type: toxicity, cell-based
[22] = Cytotoxicity against human PC-3 cells; type: toxicity, cell-based
Zaire ebolavirus = test: microbe, parasite or virus in culture; type: functional, organism-based; details: dose 5 µM
[23] = Cytotoxicity against human JEG-3 cells; type: toxicity, cell-based
Zika virus [24] = test: microbe, parasite or virus in culture
Aurora kinase B = Aurora kinase B (Homo sapiens, UniProt Q96GD4); test: Inhibition of aurora B kinase (unknown origin)
Influenza A virus [25] = test: microbe, parasite or virus in culture; type: functional, organism-based
in vitro [26] = details: human, bxpc-3
[27] = Toxicity in mouse infected with Influenza A virus assessed as lethality at 75 mg/kg, po; type: organism-based; details: in vivo
Influenza A virus [28] = test: microbe, parasite or virus in culture; type: functional, organism-based; remark: listed apart in the source
SARS-CoV-2 [29] = test: microbe, parasite or virus in culture; type: functional, organism-based; details: Severe acute respiratory syndrome coronavirus 2
Marburgvirus [30] = test: microbe, parasite or virus in culture; type: functional, organism-based; details: Orthomarburgvirus, MDM
Marburgvirus [31] = test: microbe, parasite or virus in culture; type: functional, organism-based; details: Orthomarburgvirus
Ebolavirus [32] = test: microbe, parasite or virus in culture; type: functional, organism-based; details: Orthoebolavirus, MDM
SARS-CoV-2 [33] = test: Antiviral activity against SARS-Cov-2 infected in 1 hr pretreated African green monkey Vero E6 cells assessed as inhibition of viral replication; type: functional, organism-based; details: Severe acute respiratory syndrome coronavirus 2, Vero C1008
in vitro [34] = details: chlorocebus sabaeus, Vero E6 cells
Ebolavirus [35] = test: microbe, parasite or virus in culture; type: functional, organism-based; details: Orthoebolavirus
SARS-CoV-2 [36] = test: Antiviral activity against SARS-CoV-2 assessed as inhibition of viral replication; type: functional, organism-based; details: Severe acute respiratory syndrome coronavirus 2
Zika virus [37] = test: Antiviral activity against ZIKV-PRVABC59 infected in Neuronal cell line measured after 24 hrs; type: functional, organism-based
Marburgvirus [38] = test: microbe, parasite or virus in culture; type: functional, organism-based; details: Orthomarburgvirus, Huh-7
Ebolavirus [39] = test: microbe, parasite or virus in culture; type: functional, organism-based; details: Orthoebolavirus; remark: listed apart in the source
Zika virus [40] = test: Antiviral activity against ZIKV-PRVABC59 infected in human Huh-7 cells measured after 24 hrs; type: functional, organism-based; details: PRVABC59, Huh-7, 24 h
Nipah virus [41] = test: microbe, parasite or virus in culture; type: functional, organism-based; details: Henipavirus nipahense
Lassa virus = test: microbe, parasite or virus in culture; type: functional, organism-based; details: Mammarenavirus lassaense, A549
in vitro [42] = details: human, Huh-7 cells
Nipah virus [43] = test: microbe, parasite or virus in culture; type: functional, organism-based, HEK293T; details: Henipavirus nipahense, HEK-293T
Ebolavirus [44] = test: microbe, parasite or virus in culture; type: functional, organism-based; details: Orthoebolavirus, Huh-7
Marburgvirus [45] = test: microbe, parasite or virus in culture; type: functional, organism-based; details: Orthomarburgvirus; remark: listed apart in the source
in vitro [46] = details: human, sertoli cell
Zika virus [47] = test: Antiviral activity against ZIKV at 1 uM relative to control; type: functional
[48] = test system: Human immunodeficiency virus; test: Antiviral activity against HIV p24 assessed as extracellular antigen accumulation in primary macrophage at 25 uM; type: functional
[49] = test system: Mammarenavirus choriomeningitidis; type: functional; details: dose 0.5-5 µM

Sequence of Aurora kinase B (Q96GD4 whole entry): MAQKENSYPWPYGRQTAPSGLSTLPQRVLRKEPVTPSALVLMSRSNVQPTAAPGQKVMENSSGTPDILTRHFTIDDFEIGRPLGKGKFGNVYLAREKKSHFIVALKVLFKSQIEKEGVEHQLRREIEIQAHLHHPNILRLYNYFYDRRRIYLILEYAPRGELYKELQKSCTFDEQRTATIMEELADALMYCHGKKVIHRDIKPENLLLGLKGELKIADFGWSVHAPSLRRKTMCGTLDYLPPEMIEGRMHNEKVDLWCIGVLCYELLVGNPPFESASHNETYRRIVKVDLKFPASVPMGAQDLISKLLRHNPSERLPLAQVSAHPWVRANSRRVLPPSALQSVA
Sequence of Cyclin-dependent kinase 9 (P50750 whole entry): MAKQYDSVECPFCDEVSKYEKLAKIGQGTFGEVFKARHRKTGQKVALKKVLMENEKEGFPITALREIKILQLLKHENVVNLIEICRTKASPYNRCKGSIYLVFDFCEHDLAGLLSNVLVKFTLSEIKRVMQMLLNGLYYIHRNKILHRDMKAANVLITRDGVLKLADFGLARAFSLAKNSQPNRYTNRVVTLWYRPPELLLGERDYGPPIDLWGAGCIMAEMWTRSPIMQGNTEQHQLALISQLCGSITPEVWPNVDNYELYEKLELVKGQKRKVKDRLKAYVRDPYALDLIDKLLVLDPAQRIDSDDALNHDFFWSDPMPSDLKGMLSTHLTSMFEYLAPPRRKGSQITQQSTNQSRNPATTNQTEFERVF

In the case of CN1CCCN(C(=O)c2cccc(-c3ccc(/C=C4/C(=O)Nc5ccc(Cl)cc54)o3)c2)CC1, the CC50 (in vitro [1]) is reported as over 8000 nM, the Activity (Enterovirus A71 [2]) is reported as 50% and the Activity (Enterovirus A71 [3]) is reported as 70%. The CC50 (in vitro [4]; hela) was over 8000 nM, the Activity (Enterovirus A71 [5]) was 70% and the Activity (Enterovirus A71 [6]) was 70%. For the same compound, the Activity (Enterovirus A71 [7]) was 50%.

For O=C1NCCc2[nH]c(-c3ccncc3)cc21, the IC50 (Human alphaherpesvirus 1 [8]) was 1860 nM, the IC50 (Human alphaherpesvirus 1 [9]) was 1860 nM and the CC50 [10] was 1000 nM.

NC(=O)c1cccc(-c2cc(Nc3ccc(OC(F)(F)F)cc3)ncn2)c1 showed an IC90 (dengue virus type 2 [11]) of 15000 nM, a CC50 [12] of 20000 nM and an IC50 (dengue virus type 2 [13]) of 15000 nM.

Fc1ccc(N2CCCCC2)c(NC(=S)c2ccncc2)c1 gave a CC50 (in vitro [4]; HeLa cells) of over 10000 nM, an IC50 [14] of 5800 nM and an EC50 (Human alphaherpesvirus 1 [15]) of 690 nM. The CC50 [16] was over 50000 nM, the IC50 (Human alphaherpesvirus 1 [17]) was 690 nM and the Activity (Human alphaherpesvirus 1 [18]) was 100%. For the same compound, the EC50 (Hepatitis B virus [19]) was 330 nM and the IC50 (Hepatitis B virus [20]) was 330 nM.

Ic1cccc(/C=N/Nc2nc(N3CCOCC3)nc(N(c3ccccc3)c3ccccc3)n2)c1 gave a CC50 [21] of over 10000 nM, a CC50 [22] of over 10000 nM and an inhibition at 5 µM (Zaire ebolavirus) of 100%.

With c1cncc(CN2CCC(n3ncc4c(N5CCOCC5)nc(-c5ccc6[nH]ccc6c5)nc43)CC2)c1 the CC50 [23] was over 10000 nM, the EC50 (Zika virus [24]) was 2280 nM and the IC50 (Zika virus [24]) was 2300 nM. For the same compound, the IC50 (Aurora kinase B) was 250 nM.

In the case of O=C(NCc1ccncc1)C12CC3CC(C1)CC(c1ccc(Cl)cc1)(C3)C2 [ABC-294640], the EC50 (Influenza A virus [25]) is reported as 1780 nM, the CC50 (in vitro [26]) is reported as 28500 nM and the Activity [27] is reported as “Non-Toxic”. For the same compound, the EC50 (Influenza A virus [28]) was 1780 nM.

Cc1cccc(/C=N/Nc2cc(N3CCOCC3)nc(OCCc3ccccn3)n2)c1 [APILIMOD] showed an EC50 (SARS-CoV-2 [29]) of 23 nM, an IC50 (Marburgvirus [30]) of 10 nM and an EC50 (Marburgvirus [31]) of 10 nM. The IC50 (Ebolavirus [32]) was 10 nM, the EC50 (SARS-CoV-2 [33]) was 23 nM and the CC50 (in vitro [34]) was over 1000 nM. The EC50 (Ebolavirus [35]) was 10 nM and the EC50 (SARS-CoV-2 [36]) was 23 nM.

Work on NCC(=O)Nc1ccc(-n2nc(C(F)(F)F)cc2-c2ccc3c(ccc4ccccc43)c2)cc1 [AR-12] yielded an IC50 (Zika virus [37]) of 2000 nM, an EC50 (Marburgvirus [38]) of 300 nM and an EC50 (Ebolavirus [39]) of 300 nM. It also gave an IC50 (Zika virus [40]) of 2000 nM, an EC50 (Nipah virus [41]) of 300 nM and an EC50 (Lassa virus) of 500 nM. The CC50 (in vitro [42]) was over 10000 nM, the IC50 (Zika virus [24]) was under 2000 nM and the EC50 (Nipah virus [43]) was 300 nM. It also gave an EC50 (Ebolavirus [44]) of 300 nM and an EC50 (Marburgvirus [45]) of 300 nM.

Compound Nc1nc(Nc2ccc3c(c2)CC[C@@H](N2CCCC2)CC3)nn1-c1cc2c(nn1)-c1ccccc1CCC2 [BEMCENTINIB] has a CC50 (in vitro [46]) of over 10000 nM and an Activity (Zika virus [47]) of 75%.

For Cn1c(=O)n(-c2ccc(C(C)(C)C#N)cc2)c2c3cc(-c4cnc5ccccc5c4)ccc3ncc21 [DACTOLISIB], the CC50 (in vitro [1]) was over 5000 nM, the Activity [48] was 83% and the “log(activity)” value [49] was 2.
